Experimental data reported in patent US7557215B2, “Anthraquinone compounds as anti cancer compounds” (Somanta Limited, priority 2003, dated 2009).
pIC50: −log10 of the molar value. Like-named read-outs stand apart in the source and are kept apart here.

Experiments:
[1] = system: A2780; assay: Inhibition of cell growth, A2780 wild type ovarian carcinoma cell line; conditions: for pIC50: Homo sapiens, A2780, read-out: Inhibition of cell growth A2780 nM (IC50)
[2] = system: 2780AD; assay: Inhibition of cell growth, adriamycin (doxorubicin) resistant 2780AD cell line; format: cell-based, human; conditions: for IC50: read-out: Inhibition of cell growth 2780AD nM (IC50); for RF 2780AD (IC50 in resistant cell line/IC50 in parent cell line): 2780AD vs A2780
[3] = system: A2780/cp70; assay: Inhibition of cell growth, cisplatin resistant A2780/cp70 cell line; format: cell-based, human; conditions: for RF A2780/cp70 (IC50 in resistant cell line/IC50 in parent cell line): A2780/cp70 vs A2780
[4] = system: cisplatin resistant variant (A2780/cp70) xenograft; assay: Tumour doubling time, cisplatin resistant variant xenograft A2780/cp70 in mice; format: in vivo; conditions: 16 mg/kg i.p.
Text: (§1) Compound HAQ71, with the lowest RF (0.2) of the panel of compounds tested against the cisplatin resistant cells and its chloropropyl-substituted analogue, was selected for in vivo investigation in mice using tumour A2780 and A2780/cp70 cells grown as xenografts in mice. Significant anticancer activity in vivo of HAQ71 and CAQ75 was shown; both compounds exerting similar tumour growth delay in human xenografted wild-type and acquired cisplatin resistant tumours (A2780/cp70). The latter is very refractory to cisplatin and other covalent binding agents and has been characterised with elevated levels of glutathione, alterations in drug uptake/efflux and DNA repair mechanisms including mismatch repair deficiency.

[5] = system: human ovarian tumour xenograft (A2780); assay: Tumour doubling time, human ovarian tumour xenograft A2780 in mice; format: in vivo; conditions: 16 mg/kg i.p.
Text: as §1

[6] = Homo sapiens, A2780/CP70, read-out: Inhibition of cell growth A2780/cp70 nM (IC50)
[7] = A2780/cp70 cisplatin resistant, read-out: Inhibition of cell growth A2780/cp70 nM (IC50)

Row | pIC50 [3, 7] | RF A2780/cp70 (IC50 in resistant cell line/IC50 in parent cell line) [3] | Compound | pIC50 [1] | IC50 ([2]; Homo sapiens, 2780AD) | pIC50 [3, 6] | IC50 ([2]; 2780AD adriamycin resistant) | RF 2780AD (IC50 in resistant cell line/IC50 in parent cell line) [2] | further results
1 |  |  | O=C1c2c(O)ccc(O)c2C(=O)c2c(NCCN3CCCC(CCl)C3)ccc(NCCN3CCCC(CCl)C3)c21 (stereo not shown) [CAQ74, 1,4-Bis-{[2-(3-chloromethylpiperidin-1-yl)ethyl]amino}-5,8-dihydroxyanthracene-9,10-dione] | < 6.00 | > 1000 nM | < 6.00 |  |  | 
2 |  |  | CN(C)CCNc1ccc(NCCN2CCCCC2CCl)c2c1C(=O)c1c(O)ccc(O)c1C2=O (stereo not shown) [CAQ75, 1-{[2-(2-Chloromethylpiperidin-1-yl)ethyl]amino}-4-{[(2-dimethylamino)ethyl]amino}-5,8-dihydroxyanthracene-9,10-dione] |  |  |  |  |  | doubling time (days) of tumour xenograft [4]: 4.18 ± 0.27 days; tumour growth delay (%) [4]: 166%; doubling time (days) of tumour xenograft [5]: 5.83 ± 0.40 days; tumour doubling time, percent [5]: 198%; fold decrease in cytotoxicity on substitution of OH with Cl (HAQ71 vs CAQ75) ([1]; CAQ75 compared with HAQ71): > 10 fold; RF against the cisplatin resistant cells ([3]; text b280, b283): 0.4
3 | 7.20 | 7 | CN(C)CCNc1ccc(NCCN2CCCC(Cl)C2)c2c1C(=O)c1c(O)ccc(O)c1C2=O (stereo not shown) [CAQ166M, 1-{[2-(3-Chloropiperidin-1-yl)ethyl]amino}-4-{[(2-dimethylamino)ethyl]amino}-5,8-dihydroxyanthracene-9,10-dione] |  |  |  | 75 nM | 8.3 | 
4 | 6.27 | 0.9 | CN(C)CCNc1ccc(NCCN2CCC(Cl)CC2)c2c1C(=O)c1c(O)ccc(O)c1C2=O [CAQ172, 1-{[2-(4-Chloropiperidin-1-yl)ethyl]amino}-4-{[(2-dimethylamino)ethyl]amino}-5,8-dihydroxyanthracene-9,10-dione] |  |  |  | 426 nM | 0.7 | 
5 | 7.10 | 2.7 | CN(C)CCNc1ccc(NCCN2CCCC2CCl)c2c1C(=O)c1c(O)ccc(O)c1C2=O (stereo not shown) [CAQ176M, 1-{[2-(2-Chloromethylpyrrolidin-1-yl)ethyl]-amino}-4-{[(2-Dimethylamino)ethyl]amino}-5,8-dihydroxyanthracene-9,10-dione] |  |  |  | 292 nM | 10.1 | 
6 | 7.02 | 1.4 | CN(C)CCNc1ccc(NCCN2CCC(Cl)C2)c2c1C(=O)c1c(O)ccc(O)c1C2=O (stereo not shown) [CAQ188M, 1-{[2-(3-Chloropyrrolidin-1-yl)ethyl]amino}-4-{[(2-dimethylamino)ethyl]amino}-5,8-dihydroxyanthracene-9,10-dione] |  |  |  | 342 nM | 5.0 | 
7 |  |  | O=C1c2c(O)ccc(O)c2C(=O)c2c(NCCN3CCCCC3CCl)ccc(NCCN3CCCCC3CCl)c21 (stereo not shown) [CAQ190M, 1,4-Bis-{[2-(2-chloromethylpiperidin-1-yl)ethyl]amino}-5,8-dihydroxyanthracene-9,10-dione] | 6.75 | > 1000 nM | < 6.00 |  |  | 
8 |  |  | O=C1c2ccccc2C(=O)c2c(NCCN3CCCC3CCl)cccc21 (stereo not shown) [CAQ191M, 1-{[2-(2-chloromethylpyrrolidin-1-yl)ethyl]amino}-anthracene-9,10-dione] | < 6.00 | > 1000 nM | < 6.00 |  |  | melting point: 250 to 253 °C
9 |  |  | O=C1c2ccccc2C(=O)c2c(NCCN3CCCC(CO)C3)ccc(NCCN3CCCC(CO)C3)c21 (stereo not shown) [HAQ38, 1,4-Bis-{[2-(3-hydroxymethylpiperidine-1-yl)ethyl]amino}-anthracene-9,10-dione] |  |  |  |  |  | melting point: 112 to 114 °C

Row | Compound | pIC50 [3, 7] | RF A2780/cp70 (IC50 in resistant cell line/IC50 in parent cell line) [3] | pIC50 [1] | IC50 ([2]; Homo sapiens, 2780AD) | pIC50 [3, 6] | IC50 ([2]; 2780AD adriamycin resistant) | RF 2780AD (IC50 in resistant cell line/IC50 in parent cell line) [2] | further results
10 | O=C1c2c(O)ccc(O)c2C(=O)c2c(NCCN3CCCC3CCl)ccc(NCCN3CCCC3CCl)c21 (stereo not shown) [CAQ177M, 1,4-Bis-{[2-(2-chloromethylpyrrolidin-1-yl)ethyl]amino}-5,8-dihydroxyanthracene-9,10-dione] |  | 1 | 6.37 | 782 nM | 6.35 |  | 1.8 | 
11 | CN(C)CCNc1ccc(NCCN2CCCCC2CCl)c2c1C(=O)c1c(O)ccc(O)c1C2=O (stereo not shown) [CAQ183M, 1-{[2-(2-Chloromethylpiperidin-1-yl)ethyl]-amino}-4-{[(2-dimethylamino)ethyl]amino}-5,8-dihydroxyanthracene-9,10-dione] | 7.16 | 1.7 |  |  |  | 91 nM | 2.3 | 
12 | CN(C)CCNc1ccc(NCCN2C(CCl)CCCC2CCl)c2c1C(=O)c1c(O)ccc(O)c1C2=O (stereo not shown) [CAQ187M, 1-{[2-(2,6-Dichloromethylpiperidin-1-yl)ethyl]-amino}-4-{[(2-dimethylamino)ethyl]amino}-5,8-dihydroxyanthracene-9,10-dione] | 6.45 | 14.9 |  |  |  | 106 nM | 4.4 | 
